Marks after values point to notes of the source that are not given here.
These molecules were tested on Kunming mice (assay: Influence on autonomic activity of normal mice (ZIL-2 mice autonomic activity meter, counts within 10 min)). Details: intragastric, 25 mg/kg, 1 h after administration, x ± s, n = 10.
Type: in vivo
In short: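 Activity counts during a 10-min window were taken at 1, 2 and 24 h after dosing in groups of 10 mixed-sex Kunming mice. Compounds were given in 0.5% CMC-Na at 25, 50 or 100 mg/kg. Statistics used Levene's homogeneity test, ANOVA and Dunnett's multiple comparisons.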

Row | SMILES | Times of activities in 1 h after drug administration/10 min
1 | COc1ccc(C2CC(=O)c3c(OC)cc(OC)c(OC)c3O2)cc1OC (stereo not drawn) [Example 44, 5,7,8,3′,4′-penta methoxyl-flavanone] | 220.8 ± 54.6 /10 min
2 | C=Cc1ccc(-c2cc(=O)c3cc(C#N)c(Cc4ccccc4)c(C=CC)c3o2)cc1[N+](=O)[O-] [Example 32] | 332.1 ± 47.8 /10 min

Same assay, conditions: intragastric, 25 mg/kg, 1 h after administration, x ± s, n = 10, 25 mg/kg

Row | SMILES | Times of activities in 1 h after drug administration/10 min
3 | COc1cc(OC)c2c(=O)cc(-c3ccc(OC)c(OC)c3)oc2c1 [Example 7, 5,7,3′,4′-tetramethoxyl-flavone] | 248.5 ± 55.1 /10 min

Same assay, conditions: intragastric, 25 mg/kg, 2 h after administration, x ± s, n = 10

Row | SMILES | Times of activities in 2 h after drug administration/10 min
4 | COc1ccc(C2CC(=O)c3c(OC)cc(OC)c(OC)c3O2)cc1OC (stereo not drawn) [Example 44, 5,7,8,3′,4′-penta methoxyl-flavanone] | 228.7 ± 43.3 /10 min
5 | C=Cc1ccc(-c2cc(=O)c3cc(C#N)c(Cc4ccccc4)c(C=CC)c3o2)cc1[N+](=O)[O-] [Example 32] | 321.3 ± 53.9 /10 min

Same assay, conditions: intragastric, 25 mg/kg, 2 h after administration, x ± s, n = 10, 25 mg/kg

Row | SMILES | Times of activities in 2 h after drug administration/10 min
6 | COc1cc(OC)c2c(=O)cc(-c3ccc(OC)c(OC)c3)oc2c1 [Example 7, 5,7,3′,4′-tetramethoxyl-flavone] | 234.1 ± 45.8 /10 min

Same assay, conditions: intragastric, 25 mg/kg, 24 h after administration, x ± s, n = 10

Row | SMILES | Times of activities in 24 h after drug administration/10 min
7 | COc1ccc(C2CC(=O)c3c(OC)cc(OC)c(OC)c3O2)cc1OC (stereo not drawn) [Example 44, 5,7,8,3′,4′-penta methoxyl-flavanone] | 311.6 ± 60.1 /10 min
8 | C=Cc1ccc(-c2cc(=O)c3cc(C#N)c(Cc4ccccc4)c(C=CC)c3o2)cc1[N+](=O)[O-] [Example 32] | 327.8 ± 93.9 /10 min

Same assay, conditions: intragastric, 25 mg/kg, 24 h after administration, x ± s, n = 10, 25 mg/kg

Row | SMILES | Times of activities in 24 h after drug administration/10 min
9 | COc1cc(OC)c2c(=O)cc(-c3ccc(OC)c(OC)c3)oc2c1 [Example 7, 5,7,3′,4′-tetramethoxyl-flavone] | 303.4 ± 75.8 /10 min

Same assay, conditions: intragastric, 50 mg/kg, 1 h after administration, x ± s, n = 10

Row | SMILES | Times of activities in 1 h after drug administration/10 min
10 | COc1ccc(C2CC(=O)c3c(OC)cc(OC)c(OC)c3O2)cc1OC (stereo not drawn) [Example 44, 5,7,8,3′,4′-penta methoxyl-flavanone] | 143.4 ± 41.3 /10 min
11 | C=Cc1ccc(-c2cc(=O)c3cc(C#N)c(Cc4ccccc4)c(C=CC)c3o2)cc1[N+](=O)[O-] [Example 32] | 270.2 ± 59.3 /10 min

Same assay, conditions: intragastric, 50 mg/kg, 1 h after administration, x ± s, n = 10, 50 mg/kg

Row | SMILES | Times of activities in 1 h after drug administration/10 min
12 | COc1cc(OC)c2c(=O)cc(-c3ccc(OC)c(OC)c3)oc2c1 [Example 7, 5,7,3′,4′-tetramethoxyl-flavone] | 184.7 ± 52.6 /10 min

Same assay, conditions: intragastric, 50 mg/kg, 2 h after administration, x ± s, n = 10

Row | SMILES | Times of activities in 2 h after drug administration/10 min
13 | COc1ccc(C2CC(=O)c3c(OC)cc(OC)c(OC)c3O2)cc1OC (stereo not drawn) [Example 44, 5,7,8,3′,4′-penta methoxyl-flavanone] | 133.5 ± 38.3 /10 min
14 | C=Cc1ccc(-c2cc(=O)c3cc(C#N)c(Cc4ccccc4)c(C=CC)c3o2)cc1[N+](=O)[O-] [Example 32] | 269.3 ± 50.3 /10 min

Same assay, conditions: intragastric, 50 mg/kg, 2 h after administration, x ± s, n = 10, 50 mg/kg

Row | SMILES | Times of activities in 2 h after drug administration/10 min
15 | COc1cc(OC)c2c(=O)cc(-c3ccc(OC)c(OC)c3)oc2c1 [Example 7, 5,7,3′,4′-tetramethoxyl-flavone] | 164.4 ± 45.8 /10 min

Same assay, conditions: intragastric, 50 mg/kg, 24 h after administration, x ± s, n = 10

Row | SMILES | Times of activities in 24 h after drug administration/10 min
16 | COc1ccc(C2CC(=O)c3c(OC)cc(OC)c(OC)c3O2)cc1OC (stereo not drawn) [Example 44, 5,7,8,3′,4′-penta methoxyl-flavanone] | 315.1 ± 85.5 /10 min
17 | C=Cc1ccc(-c2cc(=O)c3cc(C#N)c(Cc4ccccc4)c(C=CC)c3o2)cc1[N+](=O)[O-] [Example 32] | 334.7 ± 95.6 /10 min

Same assay, conditions: intragastric, 50 mg/kg, 24 h after administration, x ± s, n = 10, 50 mg/kg

Row | SMILES | Times of activities in 24 h after drug administration/10 min
18 | COc1cc(OC)c2c(=O)cc(-c3ccc(OC)c(OC)c3)oc2c1 [Example 7, 5,7,3′,4′-tetramethoxyl-flavone] | 318.5 ± 83.6 /10 min

Same assay, conditions: intragastric, 100 mg/kg, 1 h after administration, x ± s, n = 10

Row | SMILES | Times of activities in 1 h after drug administration/10 min
19 | COc1ccc(C2CC(=O)c3c(OC)cc(OC)c(OC)c3O2)cc1OC (stereo not drawn) [Example 44, 5,7,8,3′,4′-penta methoxyl-flavanone] | 103.4 ± 43.5 /10 min
20 | C=Cc1ccc(-c2cc(=O)c3cc(C#N)c(Cc4ccccc4)c(C=CC)c3o2)cc1[N+](=O)[O-] [Example 32] | 245.9 ± 38.8 /10 min

Same assay, conditions: intragastric, 100 mg/kg, 1 h after administration, x ± s, n = 10, 100 mg/kg

Row | SMILES | Times of activities in 1 h after drug administration/10 min
21 | COc1cc(OC)c2c(=O)cc(-c3ccc(OC)c(OC)c3)oc2c1 [Example 7, 5,7,3′,4′-tetramethoxyl-flavone] | 125.2 ± 44.5 /10 min

Same assay, conditions: intragastric, 100 mg/kg, 2 h after administration, x ± s, n = 10

Row | SMILES | Times of activities in 2 h after drug administration/10 min
22 | COc1ccc(C2CC(=O)c3c(OC)cc(OC)c(OC)c3O2)cc1OC (stereo not drawn) [Example 44, 5,7,8,3′,4′-penta methoxyl-flavanone] | 101.7 ± 45.1 /10 min
23 | C=Cc1ccc(-c2cc(=O)c3cc(C#N)c(Cc4ccccc4)c(C=CC)c3o2)cc1[N+](=O)[O-] [Example 32] | 258.9 ± 49.9 /10 min

Same assay, conditions: intragastric, 100 mg/kg, 2 h after administration, x ± s, n = 10, 100 mg/kg

Row | SMILES | Times of activities in 2 h after drug administration/10 min
24 | COc1cc(OC)c2c(=O)cc(-c3ccc(OC)c(OC)c3)oc2c1 [Example 7, 5,7,3′,4′-tetramethoxyl-flavone] | 122.2 ± 48.6 /10 min

Same assay, conditions: intragastric, 100 mg/kg, 24 h after administration, x ± s, n = 10

Row | SMILES | Times of activities in 24 h after drug administration/10 min
25 | COc1ccc(C2CC(=O)c3c(OC)cc(OC)c(OC)c3O2)cc1OC (stereo not drawn) [Example 44, 5,7,8,3′,4′-penta methoxyl-flavanone] | 303.8 ± 81.2 /10 min
26 | C=Cc1ccc(-c2cc(=O)c3cc(C#N)c(Cc4ccccc4)c(C=CC)c3o2)cc1[N+](=O)[O-] [Example 32] | 322.7 ± 88.5 /10 min

Same assay, conditions: intragastric, 100 mg/kg, 24 h after administration, x ± s, n = 10, 100 mg/kg

Row | SMILES | Times of activities in 24 h after drug administration/10 min
27 | COc1cc(OC)c2c(=O)cc(-c3ccc(OC)c(OC)c3)oc2c1 [Example 7, 5,7,3′,4′-tetramethoxyl-flavone] | 329.8 ± 53.2 /10 min

What follows are molecules tested on Kunming mice (assay: Influence on hypnosis effect with pentobarbital sodium doses below the threshold (25 mg/kg i.p.)). Details: test drug 25 mg/kg intragastric single dose, pentobarbital sodium 25 mg/kg i.p. 60 min later, sleep observed in 30 min, n = 10.
Type: in vivo
In short: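 Percentage of mice sleeping within 30 min after subthreshold pentobarbital sodium (25 mg/kg i.p.), defined by loss of righting reflex over 1 min, analysed by χ2. Compound in 0.5% CMC-Na given intragastrically at 25/50/100 mg/kg 60 min before; groups of 10 Kunming mice, both sexes.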

Row | SMILES | Number of sleeping animals | rate of sleeping (%)
28 | COc1cc(OC)c2c(=O)cc(-c3ccc(OC)c(OC)c3)oc2c1 [Example 7, 5,7,3′,4′-tetramethoxyl-flavone] | 5 | 50** %
29 | COc1ccc(C2CC(=O)c3c(OC)cc(OC)c(OC)c3O2)cc1OC (stereo not drawn) [Example 44, 5,7,8,3′,4′-penta methoxyl-flavanone] | 6 | 60** %
30 | C=Cc1ccc(-c2cc(=O)c3cc(C#N)c(Cc4ccccc4)c(C=CC)c3o2)cc1[N+](=O)[O-] [Example 32] | 3 | 30%

Same assay, conditions: test drug 50 mg/kg intragastric single dose, pentobarbital sodium 25 mg/kg i.p. 60 min later, sleep observed in 30 min, n = 10

Row | SMILES | Number of sleeping animals | rate of sleeping (%)
31 | COc1cc(OC)c2c(=O)cc(-c3ccc(OC)c(OC)c3)oc2c1 [Example 7, 5,7,3′,4′-tetramethoxyl-flavone] | 6 | 60** %
32 | COc1ccc(C2CC(=O)c3c(OC)cc(OC)c(OC)c3O2)cc1OC (stereo not drawn) [Example 44, 5,7,8,3′,4′-penta methoxyl-flavanone] | 7 | 70** %
33 | C=Cc1ccc(-c2cc(=O)c3cc(C#N)c(Cc4ccccc4)c(C=CC)c3o2)cc1[N+](=O)[O-] [Example 32] | 5 | 50** %

Same assay, conditions: test drug 100 mg/kg intragastric single dose, pentobarbital sodium 25 mg/kg i.p. 60 min later, sleep observed in 30 min, n = 10

Row | SMILES | Number of sleeping animals | rate of sleeping (%)
34 | COc1cc(OC)c2c(=O)cc(-c3ccc(OC)c(OC)c3)oc2c1 [Example 7, 5,7,3′,4′-tetramethoxyl-flavone] | 9 | 90*** %
35 | COc1ccc(C2CC(=O)c3c(OC)cc(OC)c(OC)c3O2)cc1OC (stereo not drawn) [Example 44, 5,7,8,3′,4′-penta methoxyl-flavanone] | 9 | 90*** %
36 | C=Cc1ccc(-c2cc(=O)c3cc(C#N)c(Cc4ccccc4)c(C=CC)c3o2)cc1[N+](=O)[O-] [Example 32] | 6 | 60** %

Each molecule was assayed on Kunming mice (assay: Influence on hypnosis effect with pentobarbital sodium doses at the threshold (50 mg/kg i.p.)). Details: 25 mg/kg intragastric single dose, pentobarbital sodium 50 mg/kg i.p. 60 min later, x ± s, n = 10.
Type: in vivo
In short: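 Pentobarbital sodium (0.3%, 50 mg/kg i.p.) injected 60 min after a single intragastric dose (25, 50, 100 mg/kg, 0.5% CMC-Na vehicle) in Kunming mice, 10 per group, sexes balanced. Onset and length of sleep (righting reflex lost over 1 min) analysed by ANOVA; sleeping incidence by χ2 test.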

Row | SMILES | duration of sleep [min] | time to sleep [min]
37 | COc1cc(OC)c2c(=O)cc(-c3ccc(OC)c(OC)c3)oc2c1 [Example 7, 5,7,3′,4′-tetramethoxyl-flavone] | 61.21 ± 22.82 | 3.25 ± 1.93
38 | COc1ccc(C2CC(=O)c3c(OC)cc(OC)c(OC)c3O2)cc1OC (stereo not drawn) [Example 44, 5,7,8,3′,4′-penta methoxyl-flavanone] | 58.25 ± 15.16 | 4.43 ± 1.55
39 | C=Cc1ccc(-c2cc(=O)c3cc(C#N)c(Cc4ccccc4)c(C=CC)c3o2)cc1[N+](=O)[O-] [Example 32] | 25.80 ± 22.64 | 5.38 ± 2.21

Same assay, conditions: 50 mg/kg intragastric single dose, pentobarbital sodium 50 mg/kg i.p. 60 min later, x ± s, n = 10

Row | SMILES | duration of sleep [min] | time to sleep [min]
40 | COc1cc(OC)c2c(=O)cc(-c3ccc(OC)c(OC)c3)oc2c1 [Example 7, 5,7,3′,4′-tetramethoxyl-flavone] | 79.27 ± 21.17 | 3.03 ± 1.41
41 | COc1ccc(C2CC(=O)c3c(OC)cc(OC)c(OC)c3O2)cc1OC (stereo not drawn) [Example 44, 5,7,8,3′,4′-penta methoxyl-flavanone] | 76.74 ± 25.45 | 3.46 ± 1.23
42 | C=Cc1ccc(-c2cc(=O)c3cc(C#N)c(Cc4ccccc4)c(C=CC)c3o2)cc1[N+](=O)[O-] [Example 32] | 46.11 ± 24.53 | 4.34 ± 1.45

Same assay, conditions: 100 mg/kg intragastric single dose, pentobarbital sodium 50 mg/kg i.p. 60 min later, x ± s, n = 10

Row | SMILES | duration of sleep [min] | time to sleep [min]
43 | COc1cc(OC)c2c(=O)cc(-c3ccc(OC)c(OC)c3)oc2c1 [Example 7, 5,7,3′,4′-tetramethoxyl-flavone] | 87.43 ± 21.56 | 2.32 ± 1.21
44 | COc1ccc(C2CC(=O)c3c(OC)cc(OC)c(OC)c3O2)cc1OC (stereo not drawn) [Example 44, 5,7,8,3′,4′-penta methoxyl-flavanone] | 89.39 ± 23.44 | 3.05 ± 1.57
45 | C=Cc1ccc(-c2cc(=O)c3cc(C#N)c(Cc4ccccc4)c(C=CC)c3o2)cc1[N+](=O)[O-] [Example 32] | 54.78 ± 20.89 | 3.86 ± 2.35

From patent US9669003B2, “Use of flavone and flavanone derivatives in preparation of sedative and hypnotic drugs” (priority 2012, dated 2017)
